{"source": "patent US20260130885A1", "about": "“ANTIMICROBIAL COMPOSITIONS, PHARMACEUTICAL COMPOSITIONS AND USE THEREOF” (priority 2022, published 2026)", "key": {"biofilms of MRSA USA300": {"system": "biofilms of MRSA USA300", "test": "Biofilm eradication assay", "assay_type": "cell-based, Staphylococcus aureus", "procedure": "(§1) FIG. 2: The biofilms of S. aureus NCTC8325 (the upper left graph) and MRSA USA300 (the upper right graph) were treated with increasing concentrations of blank control (Mock), DHA, daptomycin (DAP), vancomycin (VAN), SC5005, and SC5005 in combination with DHA for 24 hours. The number of viable bacteria was then determined using a cfu assay. The data represent individual experiments and are shown as the mean±SD (n=3 per group). ns, nonsignificant, p>0.05; *p<0.05; **p<0.01; ***p<0.001. (The lower left graph) the biofilms of MRSA USA300 were treated with blank control (Mock) or SC5005 along with 80 mg/L DHA for 1, 3 or 10 minute(s). The viable bacteria in the biofilms harvested and enumerated using a cfu assay. The data represent independent experiments and are shown as mean±SD (n=3 per group). ns, nonsignificant, p>0.05; *p<0.05; **p<0.01; ***p<0.001 (The lower right graph) RAW264.7 cells were exposed to a blank control (Mock) or increasing concentrations of SC5005 and 80 mg/L DHA for […]. The viability of cells was determined by the MTT assay and expressed as a percentage relative to mock (DMSO and ethanol)-treated cells. The data shown are the mean±SD (n=3 per group).\n(§2) The eradication activity of daptomycin, vancomycin, experimental acyl compounds and experimental acyl compounds along with fatty acids against biofilms of microorganisms was evaluated as described above. Briefly, bacteria were grown in tryptic soy broth (Becton Dickinson, USA) and biofilms were formed on the pegs of the lid of a 96-well dish immersed in bacterial cultures at 5×10^5 cfu/mL. […] After incubation at 37° C. for 24 hours, the peg-lids were washed and placed onto a new 96-well plate with fresh CAMHB in each well and sonicated for 5 minutes to disrupt the biofilm on the pegs, followed by a cfu assay to assess the number of viable bacteria in each well. To determine the minimum biofilm removal concentration, the 96-well plates were covered with new lids and incubated at 37° C. for 24 hours, and then the viable bacteria in each well were counted using the cfu assay."}, "[1]": {"system": "biofilms of S. aureus NCTC8325", "test": "Biofilm eradication assay", "assay_type": "cell-based, Staphylococcus aureus", "settings": "24 hours; FIG. 2", "procedure": "as §1, §2"}}, "data": [{"smiles": "O=C(Nc1ccc(Cl)c(C(F)(F)F)c1)C(CCCl)C(=O)Nc1ccc(Cl)c(C(F)(F)F)c1", "note": "[SC5005]", "values": [{"measurement": "biofilm removing activity (in words)", "setting": "biofilms of MRSA USA300; 24 hours, FIG. 2", "result": "superior biofilm removing activity in comparison with daptomycin and vancomycin"}, {"measurement": "increase of the biofilm removing activity of SC5005", "setting": "biofilms of MRSA USA300; DHA concentration 80 mg/L, strain not given", "result": 32, "unit": "times"}, {"measurement": "biofilm removing activity (in words)", "setting": "[1]", "result": "superior biofilm removing activity in comparison with daptomycin and vancomycin"}]}]}
